In brackets after ≈: the same amount, converted by molar mass.
Assays:
Format in all cases: functional, cell-based
[1] = Cytotoxicity against human SW1116 cells after 24 hrs by MTT assay; settings: SW 1116, 24 h
[2] = test system: M14; test: Cytotoxicity against human M14 cells after 24 hrs by MTT assay; settings: M14, 24 h
[3] = test system: MCF7; test: Cytotoxicity against human MCF7 cells after 24 hrs by MTT assay; settings: MCF7, 24 h

COc1ccc(C2C3=C(COC3=O)Nc3ccc4sc(C)nc4c32)cc1 (racemic)
IC50 [1]: > 1000 mg/L
IC50 [2]: 508 mg/L (≈ 1390 µM)

Cc1nc2c3c(ccc2s1)NC1=C(C(=O)OC1)C3c1ccc(Cl)cc1Cl (racemic)
IC50 [2]: > 1000 mg/L
IC50 [3]: 539 mg/L (≈ 1340 µM)

COc1cc(C2C3=C(COC3=O)Nc3ccc4sc(C)nc4c32)cc(OC)c1OC (racemic)
IC50 [1]: 383 mg/L (≈ 903 µM)
IC50 [2]: > 1000 mg/L
IC50 [3]: 686 mg/L (≈ 1620 µM)

Cc1ccc(C2C3=C(COC3=O)Nc3ccc4sc(C)nc4c32)cc1 (racemic)
IC50 [1]: 122 mg/L (≈ 350 µM)
IC50 [2]: 225 mg/L (≈ 645 µM)
IC50 [3]: 25.7 mg/L (≈ 73.7 µM)

Cc1nc2c3c(ccc2s1)NC1=C(C(=O)OC1)C3c1ccc([N+](=O)[O-])cc1 (racemic)
IC50 [1]: > 1000 mg/L
IC50 [2]: > 1000 mg/L
IC50 [3]: > 1000 mg/L

Cc1nc2c3c(ccc2s1)NC1=C(C(=O)OC1)C3c1cccc([N+](=O)[O-])c1 (racemic)
IC50 [1]: 26 mg/L (≈ 68.5 µM)
IC50 [2]: 77.9 mg/L (≈ 205 µM)
IC50 [3]: 151 mg/L (≈ 399 µM)

Cc1nc2c3c(ccc2s1)NC1=C(C(=O)OC1)C3c1ccc(Br)cc1 (racemic)
IC50 [1]: 257 mg/L (≈ 623 µM)
IC50 [2]: 167 mg/L (≈ 405 µM)
IC50 [3]: 748 mg/L (≈ 1810 µM)

Cc1nc2c3c(ccc2s1)NC1=C(C(=O)OC1)C3c1ccc(O)c([N+](=O)[O-])c1 (racemic)
IC50 [1]: 69.4 mg/L (≈ 176 µM)
IC50 [2]: 33.9 mg/L (≈ 85.7 µM)
IC50 [3]: 56 mg/L (≈ 142 µM)

Cc1nc2c3c(ccc2s1)NC1=C(C(=O)OC1)C3c1ccccc1 (racemic)
IC50 [1]: 156 mg/L (≈ 466 µM)
IC50 [2]: > 1000 mg/L
IC50 [3]: > 1000 mg/L
